# Laboratory results reported in paper PMC10580953, “In vitro and intracellular activities of novel thiopeptide derivatives against macrolide-susceptible and macrolide-resistant Mycobacterium avium complex” (Microbiology Spectrum, 2023).
# Entries after “also recorded” stand apart in the source; their conditions may differ.
# What was measured:
# [1] = Aqueous kinetic solubility; format: physicochemical; conditions: for solubility at 2 h: aqueous buffer, kinetic from dmso stock, free form, deionized water pH 7.4, 1% DMSO; for Fold increase, Free form: solubility of free form compared to MP2; for solubility: thermodynamic from solid, HCl salt in deionized water
# Method: The aqueous kinetic solubility was determined by preparing a 20 mM DMSO stock solution of test compounds and incubating an aliquot of this solution in deionized water at pH 7.4 to set a 1% final concentration of DMSO. In the case of HCl salt compounds, 1–2 mg of compound was weighed and dissolved in deionized water to yield an approximately 10 mg/mL solution. After initial mixing using brief vortexing and sonication, samples were equilibrated by shaking for 2 h at room temperature. Suspensions or solutions with visible particles were filtered through 0.22 µm PVDF membrane filters. The dissolved drug concentration was analyzed using UPLC-MS. To determine the solubility of the HCl salt, 1 mg of compound was weighed into a 2 mL glass tube, and a fixed volume of deionized water was added to yield an approximately 10 mg/mL solution. The solution was equilibrated by shaking for 24 h at room temperature. After equilibration, the vials were visually examined. If a clear solution was obtained, solubility was reported as >mg/mL.
# [2] = tested on: M. intracellulare ATCC 13950; conditions: for drug-drug interaction with CLR: synergism FICI ≤0.5, additive 0.5 < FICI ≤ 1, indifferent 1 < FICI ≤ 4, antagonistic FICI >4
# Method: (§1) To evaluate the efficacy of the combination of agent A and agent B, a fractional inhibitory concentration (FIC) index was calculated as follows: FICI = (FIC of agent A) + (FIC of agent B) = (MIC of agent A in combination/MIC of agent A alone) + (MIC of agent B in combination/MIC of agent B alone). Synergism is defined as FICI ≤0.5, additive as 0.5 < FICI ≤ 1, indifferent as 1 < FICI ≤ 4, and antagonistic as FICI >4. The cultured bacteria were diluted to a 0.005 OD600 in 7H9 broth containing 5% OADC, and the antimicrobial agents were prepared by serial dilutions to a final concentration of 0.03–4 μg/mL. For the evaluation of inhibitory concentrations, the plates were incubated at 37°C for 5–7 d. Then, MIC values were assessed by REMA, and the FICI was calculated.
# [3] = tested on: M. avium ATCC 700898; conditions: for drug-drug interaction with CLR: synergism FICI ≤0.5, additive 0.5 < FICI ≤ 1, indifferent 1 < FICI ≤ 4, antagonistic FICI >4
# Method: as §1
# [4] = tested on: macrolide-resistant M. avium; assay: MIC by REMA, macrolide-resistant M. avium strains
# From the text: (§4) Reference strains were purchased from the American Type Culture Collection (ATCC; Manassas, VA, USA). All clinical MAC isolates, including macrolide-susceptible and macrolide-resistant strains, were kindly provided by Samsung Medical Center (SMC; Seoul, South Korea) and Asan Medical Center (AMC; Seoul, South Korea). All strains were cultivated in Middlebrook 7H9 liquid broth (Difco Laboratories, Detroit, MI) supplemented with 10% oleic acid-albumin-dextrose-catalase (OADC) or plated on Middlebrook 7H10 agar (Difco Laboratories) with 10% OADC enrichment at 37°C.
# (§5) The MICs of all the reagents were determined using the REMA method based on guidelines by the Clinical and Laboratory Standards Institute ([57]). […] The cultures were diluted to an OD600 = 0.001 in 7H9 broth with 5% OADC. […] Two controls (broth only and bacteria only) were incubated to check for other contamination (broth only) and the growth of tested bacteria (bacteria only).
# (§6) PCR amplification and sequencing for CLR were based on 23S rRNA. The primers and PCR conditions were as reported previously ([59]). PCR was carried out in a final volume of 20 µL and contained EzPCR Basic 5 × premix (ELPIS, Daejeon, South Korea), 13 µL of sterile dH2O, 1 µL of each forward and reverse primer, and 1 µL of template DNA. The PCR products were run on 1% agarose gels and purified using a NEXprep Gel/PCR Purification Mini Kit (Geneslabs, Gyeonggi, South Korea) for DNA cleanup. Purified PCR products were sequenced by Sanger sequencing in Bionics (Seoul, South Korea) with their gene-specific forward and reverse primers. Sequences obtained from Bionics were subjected to BLAST searches to compare nucleotide sequences with reference strains.
# [5] = tested on: MAC in murine BMDMs; assay: Intracellular anti-MAC activity in infected BMDMs, summary statements for MAC; format: cell-based, Mycobacterium avium complex; conditions: for intracellular activity in BMDMs infected with macrolide-resistant MAC clinical isolates: 10 µg/mL, 72 h (Fig. 5 and 6)
# Method: (§2) BMDMs were obtained from 6-week-old female BALB/c mice. Bone marrow cells were differentiated into BMDMs using Dulbecco’s Modified Eagle Medium (Biowest) supplemented with 10% fetal bovine serum (Biowest) and 10% L929 cell supernatant as previously described ([58]).
# (§3) BMDMs were seeded at 4 × 10^5 cells/mL in a 48-well plate and incubated overnight at 37°C. MAC strains were infected at a multiplicity of infection of 3 for 4 h and washed with DPBS twice. The cells were then cultured in the absence or presence of drugs in triplicate wells for 72 h. After incubation, the cells were lysed with 0.05% Triton X-100, and the cell lysates serially diluted with DPBS were spotted on 7H10 agar plates supplemented with OADC to count the number of viable bacteria. Colonies were enumerated after 7 d of incubation at 37°C, and the values are reported as the mean CFU ± standard deviation (SD) per mL. All experiments were repeated at least three times independently.
# [6] = tested on: M. intracellulare; assay: MIC by resazurin microtiter assay (REMA), M. intracellulare strains
# Method: (§7) Reference strains were purchased from the American Type Culture Collection (ATCC; Manassas, VA, USA). […] All strains were cultivated in Middlebrook 7H9 liquid broth (Difco Laboratories, Detroit, MI) supplemented with 10% oleic acid-albumin-dextrose-catalase (OADC) or plated on Middlebrook 7H10 agar (Difco Laboratories) with 10% OADC enrichment at 37°C.
# as §5
# [7] = tested on: macrolide-resistant M. intracellulare; assay: MIC by REMA, macrolide-resistant M. intracellulare strains; conditions: Mycobacterium intracellulare
# From the text: as §4, §5, §6
# [8] = tested on: M. avium; assay: MIC by resazurin microtiter assay (REMA), M. avium strains
# Method: as §7, §5
# [9] = tested on: M. avium in murine BMDMs; assay: Intracellular anti-MAC activity in infected BMDMs, M. avium; format: cell-based, Mycobacterium avium
# Method: as §2, §3
# [10] = tested on: macrolide-resistant M. avium clinical isolates in BMDMs; assay: Intracellular activity in BMDMs, macrolide-resistant M. avium clinical isolates; format: cell-based, Mycobacterium avium; conditions: five macrolide-resistant M. avium clinical isolates, 10 µg/mL, 72 h (Fig. 5)
# Method: as §2, §3
# [11] = combination with CLR, synergism FICI ≤0.5, additive 0.5 < FICI ≤ 1
# [12] = M. avium (SMC#1216), 23S rRNA A2058/A2059 C/A
# [13] = Mycobacterium avium, M. avium (SMC#420), 23S rRNA A2058/A2059 C/A
# [14] = Mycobacterium avium, M. avium (SMC#422), 23S rRNA A2058/A2059 A/G
# [15] = Mycobacterium avium, M. avium (SMC#1213), 23S rRNA A2058/A2059 T/A
# [16] = M. intracellulare (AMC#24), 23S rRNA A2058/A2059 G/A
# [17] = M. intracellulare (SMC#104), 23S rRNA A2058/A2059 G/A
# [18] = M. intracellulare (SMC#400), 23S rRNA A2058/A2059 C/A
# [19] = M. intracellulare (SMC#414), 23S rRNA A2058/A2059 A/G
# [20] = M. intracellulare (SMC#418), 23S rRNA A2058/A2059 G/A
# [21] = Mycobacterium avium, M. avium (SMC#6)
# [22] = Mycobacterium avium, M. avium (SMC#1637)
# [23] = Mycobacterium intracellulare, ATCC13950, M. intracellulare (ATCC 13950), reference strain
# [24] = Mycobacterium intracellulare, M. intracellulare (SMC#8)
# [25] = Mycobacterium intracellulare, M. intracellulare (SMC#12)
# [26] = Mycobacterium avium, ATCC700898
SMILES,solubility at 2 h [1],"Fold increase, Free form [1]",solubility [1],drug-drug interaction with CLR [2],drug-drug interaction with CLR [3],"MIC [4, 12]",MIC ([4]; Mycobacterium avium),"MIC [4, 13]","MIC [4, 14]","MIC [4, 15]",intracellular activity in BMDMs infected with macrolide-resistant MAC clinical isolates [5],MIC ([6]; M. intracellulare (SMC#9)),MIC ([6]; M. intracellulare (SMC#831)),MIC ([6]; M. intracellulare (SMC#2087)),MIC ([6]; Mycobacterium intracellulare),"MIC [7, 16]","MIC [7, 17]","MIC [7, 19]","MIC [8, 21]","MIC [8, 22]",also measured
C/C=C1\NC(=O)[C@H]([C@@H](C)O)NC(=O)c2csc(n2)-c2ccc(-c3nc(-c4nc(C(=O)NC5(C(=O)NCCCN6C(=O)CNC6=O)CC5)cs4)cs3)nc2-c2csc(n2)[C@H]([C@@H](C)O)NC(=O)c2csc(n2)[C@H](C(C)C)NC(=O)c2csc1n2 [AJ-039],2.98 µg/mL,×43 fold,25.2 µg/mL,additive effect,additive effect,0.125 µg/mL,0.125 µg/mL,0.5 µg/mL,4 µg/mL,2 µg/mL,relatively little activity,0.125 µg/mL,0.125 µg/mL,0.125 µg/mL,0.125 µg/mL,0.125 µg/mL,0.125 µg/mL,0.125 µg/mL,0.125 µg/mL,0.125 µg/mL,"Fold increase, HCl salt ([1]; solubility of HCl salt compared to MP2): ×360 fold; FICI [2, 11]: 0.56; FICI [3, 11]: 0.54; MIC ([6]; M. intracellulare (SMC#8)): 0.125 µg/mL; MIC ([6]; M. intracellulare (SMC#12)): 0.125 µg/mL; MIC ([6]; M. intracellulare (SMC#699)): 0.125 µg/mL; MIC ([6]; Mycobacterium intracellulare, ATCC13950): 0.125 µg/mL; MIC [7, 18]: 0.125 µg/mL; MIC [7, 20]: 0.125 µg/mL; MIC ([8]; Mycobacterium avium, ATCC700898, M. avium (ATCC 700898), reference strain): 0.125 µg/mL; MIC ([8]; Mycobacterium avium, M. avium (CP000479.1), reference strain): 0.125 µg/mL; MIC ([8]; Mycobacterium avium, M. avium (SMC#7)): 0.125 µg/mL; CFUs in BMDMs, drug alone ([9]; M. avium SMC#7 (Fig. 2C)): did not reduce CFUs; intracellular activity of combination with CLR compared to CLR alone ([9]; M. avium SMC#7, each drug 10 µg/mL, 72 h): not significant compared to that of CLR alone"
C/C=C1\NC(=O)[C@H]([C@@H](C)O)NC(=O)c2csc(n2)-c2ccc(-c3nc(-c4nc(C(=O)NC5(C(=O)NCCN6CCN(C[C@@H](O)CO)CC6)CC5)cs4)cs3)nc2-c2csc(n2)[C@H]([C@@H](C)O)NC(=O)c2csc(n2)[C@H](C(C)C)NC(=O)c2csc1n2 [AJ-206],102 µg/mL,"×1,457 fold",> 10000 µg/mL,relatively weak but synergistic effect; also recorded: Synergistic effects,strongest synergistic effect; also recorded: Synergistic effects,0.125 µg/mL,0.125 µg/mL,0.5 µg/mL,1 µg/mL,1 µg/mL,significant decrease in CFUs,–,0.125 µg/mL,0.125 µg/mL,0.125 µg/mL,0.125 µg/mL,0.125 µg/mL,0.125 µg/mL,0.125 µg/mL,0.125 µg/mL,"intracellular growth of MAC in BMDMs ([5]; MAC-infected BMDMs, 72 h (Fig. 2)): remarkably inhibited the intracellular growth of MAC to a similar degree as CLR; also recorded: significantly reduced the number of MAC CFUs inside macrophages; intracellular bacterial growth in BMDMs [10]: notably inhibited intracellular bacterial growth; MIC [6, 23]: 0.5 µg/mL; MIC ([6]; Mycobacterium intracellulare, M. intracellulare (SMC#7)): 0.25 µg/mL; MIC [6, 24]: 0.5 µg/mL; MIC [6, 25]: 0.5 µg/mL; MIC ([6]; Mycobacterium intracellulare, M. intracellulare (SMC#699)): 0.5 µg/mL; MIC ([8]; M. avium (SMC#7)): 0.5 µg/mL; MIC ([8]; Mycobacterium avium): 0.5 µg/mL; MIC [8, 26]: 0.5 µg/mL"
"CC[C@H]1OC(=O)[C@H](C)[C@@H](O[C@H]2C[C@@](C)(OC)[C@@H](O)[C@H](C)O2)[C@H](C)[C@@H](O[C@@H]2O[C@H](C)C[C@H](N(C)C)[C@H]2O)[C@](C)(OC)C[C@@H](C)C(=O)[C@H](C)[C@@H](O)[C@]1(C)O [CLR, clarithromycin, reference compound]",–,–,–,–,–,–,–,> 64 µg/mL,> 64 µg/mL,> 64 µg/mL,resistance,0.125 µg/mL,0.125 µg/mL,0.125 µg/mL,0.125 µg/mL,> 64 µg/mL,> 64 µg/mL,> 64 µg/mL,0.125 µg/mL,0.125 µg/mL,"MIC ([4]; Mycobacterium avium, M. avium (SMC#417), 23S rRNA A2058/A2059 C/A): > 64 µg/mL; MIC ([4]; Mycobacterium avium, M. avium (SMC#1216), 23S rRNA A2058/A2059 C/A): > 64 µg/mL; MIC ([6]; M. intracellulare (SMC#699)): 0.125 µg/mL; MIC [6, 23]: 0.25 µg/mL; MIC [6, 24]: 0.25 µg/mL; MIC [6, 25]: 0.25 µg/mL; MIC [7, 18]: > 64 µg/mL; MIC [7, 20]: > 64 µg/mL; MIC ([8]; M. avium (SMC#7)): 0.5 µg/mL; MIC ([8]; Mycobacterium avium): 0.5 µg/mL; MIC [8, 26]: 0.5 µg/mL"
"COc1nc2ccc(Br)cc2cc1[C@@H](c1ccccc1)[C@@](O)(CCN(C)C)c1cccc2ccccc12 [bedaquiline, reference compound]",–,–,–,synergistic effects were not observed,synergistic effects were not observed,–,–,–,–,–,–,–,–,–,–,–,–,–,–,–,–
